Measurements: publication PMC4597782 (Nature, 2015)

Columns and labels:
mGluR3 [1] = target: T1, mGluR3 (Rattus norvegicus, UniProt P31422); format: biochemical; details: for average active state lifetime: 2 mM Ca2+ or 100 nM glutamate
mGluR2 [2] = target: T2, mGluR2 (Rattus norvegicus, UniProt P31421); format: biochemical
mGluR2 [3] = target: T2, mGluR2; format: cell-based; details: normalized to response to 1 mM glutamate
mGluR3 [4] = target: T1, mGluR3; format: cell-based; details: read-out: EC50 of glutamate-dependent decrease in ensemble FRET; HEK293T cells
[5] = target: mGluR2 WT/YADA heterodimer (Rattus norvegicus, UniProt P31421, D295A/Y216A); test: smFRET of mGluR2 WT/YADA heterodimers; format: biochemical; details: near-saturating glutamate for the WT subunit
[6] = target: mGluR2-YADA (Y216A and D295A) (Rattus norvegicus, UniProt P31421, D295A/Y216A); test: smFRET of glutamate-insensitive mutant mGluR2-YADA; format: biochemical; details: 50 μM or 1 mM glutamate
Sequence of mGluR2-YADA (Y216A and D295A) (P31421 19-872 Y216A/D295A): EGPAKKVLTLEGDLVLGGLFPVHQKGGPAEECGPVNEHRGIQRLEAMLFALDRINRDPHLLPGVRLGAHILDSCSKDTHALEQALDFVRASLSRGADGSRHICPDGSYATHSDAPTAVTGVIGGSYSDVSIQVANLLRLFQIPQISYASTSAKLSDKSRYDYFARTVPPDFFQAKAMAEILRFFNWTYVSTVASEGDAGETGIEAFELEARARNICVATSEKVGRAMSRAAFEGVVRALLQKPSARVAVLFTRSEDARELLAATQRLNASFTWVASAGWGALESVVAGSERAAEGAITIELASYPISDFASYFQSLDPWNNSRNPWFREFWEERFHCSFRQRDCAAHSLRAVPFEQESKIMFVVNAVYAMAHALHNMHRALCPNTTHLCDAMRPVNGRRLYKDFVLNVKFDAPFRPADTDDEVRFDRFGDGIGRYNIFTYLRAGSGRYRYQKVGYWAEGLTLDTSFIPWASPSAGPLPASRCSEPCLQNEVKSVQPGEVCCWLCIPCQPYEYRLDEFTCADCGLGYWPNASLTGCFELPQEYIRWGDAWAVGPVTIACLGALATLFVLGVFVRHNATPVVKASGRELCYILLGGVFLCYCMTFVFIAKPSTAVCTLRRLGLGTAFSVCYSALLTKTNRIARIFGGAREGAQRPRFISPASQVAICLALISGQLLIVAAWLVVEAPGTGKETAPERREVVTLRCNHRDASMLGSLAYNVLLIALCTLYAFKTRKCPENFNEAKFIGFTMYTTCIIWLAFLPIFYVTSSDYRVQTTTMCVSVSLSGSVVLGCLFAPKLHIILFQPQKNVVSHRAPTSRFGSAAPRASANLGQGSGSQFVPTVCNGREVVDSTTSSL
Sequence of mGluR2-YADA (Y216A and D295A) (P31421 19-872 Y216A/D295A): as above

T2 sequence (P31421 19-872): as the sequence (P31421 19-872 Y216A/D295A) above, with A198Y, A277D counted along it
T2 sequence (P31421 19-872): as the sequence (P31421 19-872 Y216A/D295A) above, with A198Y, A277D counted along it
T1 sequence (P31422 23-879): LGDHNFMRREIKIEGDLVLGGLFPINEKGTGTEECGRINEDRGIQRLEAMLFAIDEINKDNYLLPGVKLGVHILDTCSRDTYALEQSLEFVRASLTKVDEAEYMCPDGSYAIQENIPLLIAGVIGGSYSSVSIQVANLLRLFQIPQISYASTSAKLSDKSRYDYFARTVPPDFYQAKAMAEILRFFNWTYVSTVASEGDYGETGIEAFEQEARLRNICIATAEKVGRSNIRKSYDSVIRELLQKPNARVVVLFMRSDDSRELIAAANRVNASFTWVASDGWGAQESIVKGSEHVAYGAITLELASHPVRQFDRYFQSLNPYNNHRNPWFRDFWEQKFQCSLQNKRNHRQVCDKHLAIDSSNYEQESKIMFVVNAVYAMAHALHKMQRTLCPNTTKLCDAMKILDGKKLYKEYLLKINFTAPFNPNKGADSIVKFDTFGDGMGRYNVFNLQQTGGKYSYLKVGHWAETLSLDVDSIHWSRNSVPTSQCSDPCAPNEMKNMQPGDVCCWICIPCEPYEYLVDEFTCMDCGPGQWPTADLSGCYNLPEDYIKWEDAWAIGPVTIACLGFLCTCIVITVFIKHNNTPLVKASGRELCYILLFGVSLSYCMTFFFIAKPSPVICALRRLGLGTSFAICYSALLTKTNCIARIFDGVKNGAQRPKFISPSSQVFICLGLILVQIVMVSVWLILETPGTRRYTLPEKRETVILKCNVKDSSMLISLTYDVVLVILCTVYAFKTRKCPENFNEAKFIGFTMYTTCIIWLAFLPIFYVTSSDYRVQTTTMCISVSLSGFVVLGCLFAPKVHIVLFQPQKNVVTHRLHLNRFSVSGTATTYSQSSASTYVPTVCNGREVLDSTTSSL
T1 sequence (P31422 23-879): as above
Sequence of mGluR2 WT/YADA heterodimer (P31421 19-872, stated change not applied): as the sequence (P31421 19-872 Y216A/D295A) above, with A198Y, A277D counted along it
Sequence of mGluR2 WT/YADA heterodimer (P31421 19-872 Y216A/D295A): as the sequence (P31421 19-872 Y216A/D295A) above

## [Ca+2] [Ca^2+]
mGluR3 [1]; 0 glutamate
  effect on low FRET state occupancy: concentration-dependent increase in low FRET state occupancy
mGluR3 [1]
  average active state lifetime: 183 ms

## N[C@H](C(=O)O)C1[C@@H](C(=O)O)[C@@H]1C(=O)O (some centres unmarked) [DCG-IV]
mGluR2 [2]; saturating concentrations (≥100 μM)
  share of distribution remaining in the high and medium FRET states: ~ 30%

## COc1ccccc1Oc1ccc(N(Cc2cccnc2)S(=O)(=O)CC(F)(F)F)cc1 [LY48739, LY487379]
mGluR2 [2]; in the presence of DCG-IV (1 μM)
  effect on relative occupancy of the low FRET state: increased the relative occupancy of the low FRET state
mGluR2 [3]
  effect on DCG-IV response in ensemble FRET: increases the apparent affinity and efficacy of DCG-IV

## N[C@@]1(C(=O)O)CO[C@H]2[C@H](C(=O)O)[C@H]21 [LY379268]
mGluR2 [2]; saturating agonist, compared with glutamate
  occupancy of the active (low FRET) state: more complete occupancy of the active state than glutamate

## N[C@@H](CCC(=O)O)C(=O)O [glutamate]
mGluR2 [2]; WT/WT homodimer
  maximal medium FRET occupancy: ~ 25%
mGluR3 [4]
  EC50: 0.5 ± 0.2 µM
mGluR3 [1]
  average active state lifetime: 183 ms
[5]
  occupancy of the medium FRET state: ~ 55%
[6]
  effect on the FRET histogram: no effect
